Measured values taken from patent publication EP4778522A1, “USE OF PYRROLOPYRIMIDINE COMPOUND AND COMPOSITION THEREOF” (Guangzhou Joyo Pharmatech Co., Ltd., priority 2023, dated 2025).
Where “and” joins values, the source holds several entries; their conditions need not be identical. Identical values can stand only once. Marks after values point to notes of the source that are not given here.

How the values were obtained:
[1] = test system: monobenzone-induced mouse vitiligo model; test: Monobenzone-induced mouse vitiligo model: hair depigmentation area scoring; assay type: in vivo, C57BL/6 mice; parameters: Hair depigmentation area scoring: scale not given here
Procedure: • 1) Animals: C57BL/6 mice, specific pathogen-free (SPF), with equal numbers of females and males. The mice were 6-8 weeks old at grouping, with 10 mice per group. The animals were provided by Charles River Laboratories. • 2) Reagents, positive drugs and test drugs
Monobenzone induction method: after 1 week of adaptive feeding of all the animals, modeling was performed and all black hairs on the back of the mice were removed by a shaver. 10 animals were randomly selected as a normal control group and applied with 50 mg of vaseline once a day; and the remaining 80 animals were used for modeling and applied with 50 mg of 40% monobenzone depigmentation ointment once a day. The applying area of the normal control group and the model group was 2 cm*3 cm of the fixed part of the back, and the modeling was continuously performed for 103 days. In order to prevent the phenomenon that the animals lick the drugs, after the animals were applied with a modeling agent, they needed to be separately placed in an independent cage without padding for a period of time to naturally dry the modeling agent, and then they were placed in a rearing cage for normal rearing. During the modeling process, new hairs grown in the alopecic areas of the backs of the mice were shaved by the shaver and then applied with the drug.
The 40% monobenzone depigmentation ointment was applied every day. After modeling for 53 days, according to a depigmentation area score (see scoring criteria of Table 9), 70 animals successfully modeled in modeling group (score ≥ 2) were randomly divided into 7 groups with 10 mice per group. The mean depigmentation area score of the animals in each group was basically consistent before the administration, and the day of grouping was defined as day 0 of the administration treatment period. Table 8 Grouping and administration regimen
During the whole experiment process, the mice in normal control group (G1) were applied with 50 mg of vaseline once a day; and the mice in each model group (G2-G8) were applied with 50 mg of 40% monobenzone ointment once a day. After modeling for 53 days, the mice were grouped and subjected to drug treatment after grouping consecutively for 50 days. The modeling operation was maintained during the drug intervention period. The mice were applied with the drug twice a day for treatment at an interval of 6 hours or more. […]

[2] = test system: imiquimod-induced C3H/HeJ mice alopecia areata model; test: Imiquimod-induced mouse alopecia areata model: hair growth; assay type: in vivo; conditions: Baricitinib 10 mg/kg oral by gavage twice a day for one month, Day 30; for Newly grown hair score: score 0-5
Procedure: • 1) Animals: female C3H/He mice, SPF, aged 6-8 weeks at grouping. The animals were provided by Beijing Viewsolid Biotech. • 2) Reagents, positive drugs and test drugs
After one week of adaptive feeding of C3H/HeJ mice: modeling was performed by applying imiquimod ointment to the neck, 3 times a week. The mice were carefully taken out, and about 0.05 g of 5% imiquimod ointment was dipped with a clean medical cotton swab and then applied evenly to the skin on the neck over a range of about 1.5 cm×1.5 cm. Before each application, the local part was cleaned by normal saline to remove the residual drug in the previous time. The continuous administration time was no longer than 10 weeks. When alopecia areata with an area size > 1 cm×1 cm was formed at the administration part, the administration was stopped, proving that a preparation model was successful. The mice in the normal control group were modeled by using blank ointment (vaseline ointment).
During the period from the first administration to the end of the last administration after the alopecia areata modeling was successful, the alopecia areata part of each mouse was photographed once every 3 days, the photographing distance, angle and magnification times were fixed, and the hair growth of the alopecic areas on the backs of the mice was recorded.
Visual quantification of the alopecia area images was performed using ImageJ software. The hair growth area (a) and hair loss area (b) were calculated. The hair growth rate was counted and analyzed: hair growth rate (%) = (a/b)* 100%. The newly grown hairs at the alopecia areata part of the mice in each group were scored based on the hair growth rate. Table 14 Scoring criteria of newly grown hairs

[3] = test system: imiquimod-induced C3H/HeJ mice alopecia areata model; test: Imiquimod-induced mouse alopecia areata model: number of hair follicles in skin; assay type: in vivo; conditions: Baricitinib 10 mg/kg oral by gavage twice a day for one month, skin at alopecia areata part
Procedure: After the animals were anesthetized and euthanized, the complete skin tissue of the alopecic area was cut along the junction between the normal skin of the back of the mouse and the alopecic area and perpendicular to the skin surface. A part of the tissue was taken, conventionally dehydrated and embedded. The remaining tissue was stored in a refrigerator at -80°C for later use.
The embedded skin tissue was cut into 3 µm-thick sections, and then the sections were dewaxed in xylene, hydrated by gradient ethanol, H&E stained, dehydrated, cleared and mounted. The hair follicles in skin tissue sections from each group were microscopically observed and photographed. The mean number of the hair follicles was calculated using Image J software.

[4] = test system: monobenzone-induced mouse vitiligo model; test: Monobenzone-induced mouse vitiligo model: skin pathological analysis of melanin-containing hair follicles; assay type: in vivo, C57BL/6 mice; conditions: 1.5% ruxolitinib ointment
Procedure: The mice were euthanized within 2-4 hours after the last administration, and approximately 1 cm^2 of the skin in the center of the depilated part of the mice was taken and fixed with 4% paraformaldehyde. The animal skin tissues were fixed with 4% paraformaldehyde, dehydrated, embedded with paraffin, sectioned and then subjected to HE staining. The stained sections were photographed by white light panoramic scanning, histopathological changes of the skin tissues and inflammatory cell infiltration were observed, and the number of melanin-containing hair follicles and/or the proportion of the melanin-containing hair follicles in the skin were quantitatively analyzed. The panoramic scanning files were opened by using CaseViewer software, a picture view with the length of about 3.8 mm was randomly selected, and the pictures were saved. The number of all the hair follicles and the number of the melanin-containing hair follicles in the picture were counted respectively by using ipwin32 software. The proportion of the melanin-containing hair follicles was calculated according to the following formula: Proportion of melanin-containing hair follicles = number of melanin-containing follicles/number of all follicles

[5] = 30 mg topical twice a day for 50 days

`C=CC[C@@H]1/C=C(\C)C[C@H](C)C[C@H](OC)[C@H]2O[C@@](O)(C(=O)C(=O)N3CCCC[C@H]3C(=O)O[C@H](/C(C)=C/[C@@H]3CC[C@@H](O)[C@H](OC)C3)[C@H](C)[C@@H](O)CC1=O)[C@H](C)C[C@@H]2OC` [tacrolimus, reference compound] was tested, and the “Hair depigmentation area scoring” value ([1]; Day 0 (before administration), 0.03% tacrolimus ointment group) was 3.60, the “Hair depigmentation area scoring” value ([1]; Day 10, 0.03% tacrolimus ointment, 30 mg topical twice a day) was 3.50 and the “Hair depigmentation area scoring” value ([1]; Day 20, 0.03% tacrolimus ointment, 30 mg topical twice a day) was 3.40. The “Hair depigmentation area scoring” value ([1]; Day 30, 0.03% tacrolimus ointment, 30 mg topical twice a day) was 3.40, the “Hair depigmentation area scoring” value ([1]; Day 35, 0.03% tacrolimus ointment, 30 mg topical twice a day) was 2.60 and the “Hair depigmentation area scoring” value ([1]; Day 38, 0.03% tacrolimus ointment, 30 mg topical twice a day) was 2.50. The “Hair depigmentation area scoring” value ([1]; Day 41, 0.03% tacrolimus ointment, 30 mg topical twice a day) was 2.30, the “Hair depigmentation area scoring” value ([1]; Day 44, 0.03% tacrolimus ointment, 30 mg topical twice a day) was 2.20 and the “Hair depigmentation area scoring” value ([1]; Day 47, 0.03% tacrolimus ointment, 30 mg topical twice a day) was 2.20. The “Hair depigmentation area scoring” value ([1]; Day 50, 0.03% tacrolimus ointment, 30 mg topical twice a day) was 2.20 and the “reduction rate of the depigmentation area score” value ([1]; day 50, 0.03% tacrolimus ointment, compared with the model control group) was 56.9%.
`CCS(=O)(=O)N1CC(CC#N)(n2cc(-c3ncnc4[nH]ccc34)cn2)C1` [Baricitinib, reference compound] was tested, and the “Hair growth rate (%)” value ([2]; listed as Positive control) was 69.58 ± 3.23 %, the “Hair growth rate (%)” value ([2]; listed as positive drug) was 69.58 ± 3.23% and the “Newly grown hair score” value ([2]; listed as Positive control) was 4.2 ± 0.2. The “Newly grown hair score” value ([2]; listed as positive drug) was 4.2 ± 0.2, the “Mean number of hair follicles” value ([3]; listed as Positive control) was 40 ± 7.36 and the “Mean number of hair follicles” value ([3]; listed as positive drug) was 40 ± 7.36.
With `N#CC[C@H](C1CCCC1)n1cc(-c2ncnc3[nH]ccc23)cn1` [ruxolitinib, reference compound] the “Hair depigmentation area scoring” value ([1]; Day 0 (before administration), 1.5% ruxolitinib ointment group) was 3.90, the “Hair depigmentation area scoring” value ([1]; Day 10, 1.5% ruxolitinib ointment, 30 mg topical twice a day) was 3.80 ** and the “Hair depigmentation area scoring” value ([1]; Day 20, 1.5% ruxolitinib ointment, 30 mg topical twice a day) was 3.70 **. For the same molecule, the “Hair depigmentation area scoring” value ([1]; Day 30, 1.5% ruxolitinib ointment, 30 mg topical twice a day) was 3.40 **, the “Hair depigmentation area scoring” value ([1]; Day 35, 1.5% ruxolitinib ointment, 30 mg topical twice a day) was 2.90 ** and the “Hair depigmentation area scoring” value ([1]; Day 38, 1.5% ruxolitinib ointment, 30 mg topical twice a day) was 2.60 **. The “Hair depigmentation area scoring” value ([1]; Day 41, 1.5% ruxolitinib ointment, 30 mg topical twice a day) was 2.40 **, the “Hair depigmentation area scoring” value ([1]; Day 44, 1.5% ruxolitinib ointment, 30 mg topical twice a day) was 2.30 ** and the “Hair depigmentation area scoring” value ([1]; Day 47, 1.5% ruxolitinib ointment, 30 mg topical twice a day) was 2.20 **. The “Hair depigmentation area scoring” value ([1]; Day 50, 1.5% ruxolitinib ointment, 30 mg topical twice a day) was 2.20 **, the “mean value of the reduction rate of the depigmentation area score” value ([1]; day 50, 1.5% ruxolitinib ointment, 30 mg (5 mg/cm^2) topical) was 56.9% and the “number of the melanin-containing hair follicles, times that of the model control group” value [4] was “about 6 times”. For the same molecule, the “Number of melanin-containing hair follicles” value [4, 5] was 41.7±16.7 and 41.7 and the “Proportion of melanin-containing hair follicles (%)” value [4, 5] was 29.8 ± 9.9% and 29.8%.
